Assay results reported in patent US20010025105A1, “Certain substituted 1-aryl-3-piperazine-1'-yl propanones” (Molecular Geriatarics Corporation, priority 1997, published 2001).

What was measured:
Assay in all cases: Agar disc diffusion assay
Type in all cases: cell-based
Candida albicans SRI 523 = conditions: 240 ug/disc, about 24 hr at 37° C.
Experimental: (§1) The activity of the compounds is determined using the following assay. The compound is dissolved in DMSO at a concentration of 6 mg/ml and then diluted with water to a final concentration of 3 mg/ml in 50% DMSO (% DMSO was shown not to be inhibitory to the test organisms). An aliquot (0.08 ml) of each drug solution was transferred to filter paper discs (12.7 mm diameter, Scmeicherand Schuell) for use in the agar diffusion assay. The concentration of each drug on the filter paper disc was 240 ug/disc. The test organisms included the following: Gram-positive aerobes (Staphylococcus aureus SRI 1323, Streptococcus pneumoniae SRI 1167); Gram-negative aerobe (Proteus vulgaris SRI 180); and the yeast Candida albicans SRI 523. An agar disc diffusion assay was used to evaluate the antimicrobial activity of the test compounds. Briefly, cultures were prepared from 16-20 hr agar slant cultures by inoculating in physiological saline to a turbidity equivalent to a #0.5 McFarland turbidity standard for the bacteria and a #3 McFarland standard for C. albicans. The surface of Mueller-Hinton agar (15×100 mm plates, mm) were evenly inoculated with each standardized culture using a cotton swab. Filter paper discs containing the drug concentration listed above were then placed on the inoculated agar plates along with a disc containing the solvent used to dissolve each drug. The plates were incubated at 37° C. for about 24 hr and the diameters of the zones of inhibition measured with a vernier caliper. Positive control drugs consisted of streptomycin for use with the bacterial strains and 5-fluorocytosine for use with C. albicans. The positive control drugs were assayed as described above for the compounds of the present invention using the same concentration.

Proteus vulgaris SRI 180 = conditions: 240 ug/disc, about 24 hr at 37° C.; 0 = no measurable zone
Experimental: as §1

[1] = test system: Staphylococcus aureus SRI 1323; conditions: 240 ug/disc, about 24 hr at 37° C.
Experimental: as §1

[2] = test system: Streptococcus pneumoniae SRI 1167; conditions: 240 ug/disc, about 24 hr at 37° C.; + = zone too large to measure
Experimental: as §1

Cl.Cl.O=C(CCN1CCN(Cc2ccccc2)CC1)c1ccc(F)c2ccccc12 [Example 21, 1-(4″-Fluoronaphth-1″-yl)-3-(4′-benzyl-1′-piperazinyl)-1-propanone dihydrochloride]
Diameter of the zone of inhibition, C. albicans (Candida albicans SRI 523): 26.6 mm
Diameter of the zone of inhibition, P. vulgaris (Proteus vulgaris SRI 180): 0^1 mm
Diameter of the zone of inhibition, S. aureus [1]: 33.8 mm
Diameter of the zone of inhibition, S. pneumoniae [2]: 40.7 mm
